Experiments:
Type in all cases: biochemical
MMP-13 = target: T1, MMP-13 (Homo sapiens, UniProt P45452); test: Assay for inhibitory activities on MMPs (fluorogenic MOCAc peptide substrate): MMP-13; settings: Table 40
T1 construct: catalytic domain (^104Tyr˜^267Gly) was amplified with RT-PCR; His-tag; enterokinase digestion-site; made in house
Experimental: (§1) In regard to MMP-13, mRNA was prepared from carcinoma cell SW1353 derived from human cartilage stimulate by IL-1, TNF and catalytic domain (^104Tyr˜^267Gly) was amplified with RT-PCR. This was cloned in Escherichia. coli expression vector pTrc99AHE inserted with His-tag sequence and enterokinase digestion-site, induced and expressed by IPTG (Isopropyl-β-D-thiogalactopyranoside) and expressed in a insoluble fraction. Isolation of MMP-13 from an insoluble fraction was carried out by dissolving in modifier (6M urea) by a usual method and purification with metal chelate chromatography (Ni Chelateing Sepharose). And then removing modifier (6M urea) with dialyze and refolding of the enzyme spontaneously gave activated MMP-13.
(§2) The enzymatic activity on MMPs was analyzed by the method described in “C. Graham Knight, Frances Willenbrock and Gillian Murphy: A novel coumarin-labelled peptide for sensitive continuous assays of the matrix metalloproteinases: FEBS LETT., 296, (1992), 263-266”. The substrate: MOCAc-Pro-Leu-Gly-Leu-A2Pr(DNP)-Ala-Arg-NH2 was purchased from Peptide Institute, Inc., Osaka, Japan. The measurement of the inhibitory activities (IC50) was carried out by the following four methods; • (A) Reaction with substrate, enzyme (MMPs) and inhibitor • (B) Reaction with substrate and inhibitor, without enzyme • (C) Reaction with substrate and enzyme (MMPs), without inhibitor • (D) Reaction with substrate only IC50 values were calculated by using the following formula and each fluorescence values of above four methods (A to D).
(§3) The value of inhibitory activity against MMP-2, MMP-8, MMP-9, MMP-12, and MMP-13 measured by above mentioned methods are shown in Table 36, 37, 38, 39, and 40 respectively.

MMP-8 = target: T2, MMP-8 (Homo sapiens, UniProt P22894); test: Assay for inhibitory activities on MMPs (fluorogenic MOCAc peptide substrate): MMP-8; settings: catalytic domain 99Phe-262Gly
T2 construct: In regard to MMP-8, catalytic domain (^99Phe˜^262Gly) was amplified with PCR; His-tag; enterokinase digestion-site; made in house
T2 sequence (P22894 99-262): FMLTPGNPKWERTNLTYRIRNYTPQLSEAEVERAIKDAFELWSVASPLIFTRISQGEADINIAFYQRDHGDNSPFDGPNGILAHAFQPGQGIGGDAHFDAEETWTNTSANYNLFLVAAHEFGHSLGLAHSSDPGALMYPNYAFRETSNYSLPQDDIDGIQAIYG
Excerpt: In regard to MMP-8, catalytic domain (^99Phe˜^262Gly) was amplified with PCR using commercial available Human Bone Marrow cDNA. This was cloned in Escherichia. coli expression vector pTrc99AHE inserted with His-tag sequence and enterokinase digestion-site, induced and expressed by IPTG (Isdpropyl-β-D-thiogalactopyranoside) and expressed in a insoluble fraction (Thau F. Ho, M. Walid Qoronfleh, Robert C. Wahl, Trica A. Pulvino, Karen J. Vavra, Joe Falvo, Tracey M. Banks, Patricia G. Brake and Richard B. Ciccarelli: Gene expression, purification and characterization of recombinant human neutrophil collagenase. Gene 146, (1994) 297-301, Prepared by the a improved method of this material). Isolation of MMP-8 from an insoluble fraction was carried out by dissolving in modifier (6M urea) by a usual method and purification with metal chelate chromatography. And then removing modifier (6M urea) with dialysis and refolding of the enzyme spontaneously gave activated MMP-8.
as §2, §3

MMP-12 = target: T3, MMP-12 (Homo sapiens, UniProt P39900); test: Assay for inhibitory activities on MMPs (fluorogenic MOCAc peptide substrate): MMP-12; settings: catalytic domain 100Phe-263Gly
T3 construct: In regard to MMP-12, catalytic domain(^100Phe˜^263Gly) was amplified with RT-PCR; His-tag; enterokinase digestion-site; made in house
T3 sequence (P39900 100-263): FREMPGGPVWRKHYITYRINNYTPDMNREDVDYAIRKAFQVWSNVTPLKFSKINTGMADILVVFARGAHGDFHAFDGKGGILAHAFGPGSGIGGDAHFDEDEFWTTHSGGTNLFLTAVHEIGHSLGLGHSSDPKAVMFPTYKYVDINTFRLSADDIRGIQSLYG
Experimental: as §1, with “MMP-12,” for “MMP-13, mRNA was prepared from carcinoma cell SW1353 derived from human cartilage stimulate by IL-1, TNF and”, “domain(^100Phe˜^263Gly)” for “domain (^104Tyr˜^267Gly)”, “RT-PCR from Human Placenta Total RNA.” for “RT-PCR.”, “MMP-12” for “MMP-13”, “dialysis” for “dialyze”, “MMP-12.” for “MMP-13.”
as §2, §3

## CCc1ccc(-c2cc(-c3ccc(S(=O)(=O)N[C@@H](C(=O)O)C(C)C)cc3)on2)cc1 [Example A-26]
MMP-13
  IC50: 0.000943 µM

## COc1ccc(-c2cc(-c3ccc(S(=O)(=O)N[C@@H](C(=O)O)C(C)C)cc3)on2)cc1Cl [Example A-56]
MMP-8
  IC50: 0.00397 µM
MMP-12
  IC50: 0.000898 µM

## COc1ccc(-c2cc(-c3ccc(S(=O)(=O)N[C@@H](CC(C)C)C(=O)O)cc3)on2)cc1F [Example A-79]
MMP-8
  IC50: 0.00111 µM
MMP-12
  IC50: 0.000622 µM

## CSCC[C@@H](NS(=O)(=O)c1ccc(-c2cc(-c3ccc(C(C)C)cc3)no2)cc1)C(=O)O [Example A-107]
MMP-13
  IC50: 0.000658 µM

## CSCC[C@@H](NS(=O)(=O)c1ccc(-c2cc(-c3ccc(OC(F)(F)F)cc3)no2)cc1)C(=O)O [Example A-108]
MMP-12
  IC50: 0.000764 µM
MMP-13
  IC50: 0.000635 µM

## CC(C)c1ccc(-c2cc(-c3ccc(S(=O)(=O)N[C@H](Cc4c[nH]c5ccccc45)C(=O)O)cc3)on2)cc1 [Example A-111]
MMP-13
  IC50: 0.000465 µM

## CSc1ccc(-c2cc(-c3ccc(S(=O)(=O)N[C@H](C(=O)O)C(C)C)cc3)no2)cc1 [Example C-11]
MMP-12
  IC50: 0.000289 µM
MMP-13
  IC50: 0.000739 µM

## CCc1ccc(-c2cc(-c3ccc(S(=O)(=O)N[C@H](C(=O)O)C(C)C)cc3)no2)cc1 [Example C-13]
MMP-12
  IC50: 0.000201 µM
MMP-13
  IC50: 0.000757 µM

## CC(C)c1ccc(-c2cc(-c3ccc(S(=O)(=O)N[C@H](C(=O)O)C(C)C)cc3)no2)cc1 [Example C-16]
MMP-12
  IC50: 0.000287 µM
MMP-13
  IC50: 0.000403 µM

## CCCCc1ccc(-c2cc(-c3ccc(S(=O)(=O)N[C@@H](C(=O)O)C(C)C)cc3)no2)cc1 [Example C-17]
MMP-8
  IC50: 0.00421 µM
MMP-12
  IC50: 0.000239 µM
MMP-13
  IC50: 0.000578 µM

## COc1ccc(-c2cc(-c3ccc(S(=O)(=O)N[C@@H](C(=O)O)C(C)C)cc3)no2)cc1 [Example C-18]
MMP-8
  IC50: 0.00419 µM
MMP-12
  IC50: 0.000384 µM
MMP-13
  IC50: 0.000853 µM

## COc1ccc(-c2cc(-c3ccc(S(=O)(=O)N[C@H](C(=O)O)C(C)C)cc3)no2)cc1 [Example C-19]
MMP-8
  IC50: 0.00397 µM
MMP-12
  IC50: 0.000447 µM

## CC(C)[C@H](NS(=O)(=O)c1ccc(-c2cc(-c3ccc(OC(F)(F)F)cc3)on2)cc1)C(=O)O [Example C-26]
MMP-12
  IC50: 0.000148 µM
MMP-13
  IC50: 0.000884 µM

## CC(C)[C@@H](NS(=O)(=O)c1ccc(-c2cc(-c3ccc(C(F)(F)F)cc3)on2)cc1)C(=O)O [Example C-27]
MMP-12
  IC50: 0.000316 µM
MMP-13
  IC50: 0.000758 µM

## Cc1ccc(-c2cc(-c3ccc(S(=O)(=O)N[C@H](C(=O)O)C(C)C)cc3)no2)s1 [Example C-30]
MMP-8
  IC50: 0.00124 µM
MMP-12
  IC50: 0.000758 µM

## CC(C)[C@H](NS(=O)(=O)c1ccc(-c2cc(-c3ccc(Cl)s3)on2)cc1)C(=O)O [Example C-34]
MMP-8
  IC50: 0.00177 µM
MMP-12
  IC50: 0.000866 µM

## CC(C)[C@H](NS(=O)(=O)c1ccc(-c2cc(-c3ccc(Cl)c(F)c3)on2)cc1)C(=O)O [Example C-37]
MMP-8
  IC50: 0.00433 µM
MMP-12
  IC50: 0.000172 µM

## CC(C)[C@H](NS(=O)(=O)c1ccc(-c2cc(-c3ccc(Cl)c(Cl)c3)on2)cc1)C(=O)O [Example C-41]
MMP-8
  IC50: 0.00379 µM
MMP-12
  IC50: 0.000294 µM

## CC(C)[C@@H](NS(=O)(=O)c1ccc(-c2cc(-c3ccc4c(c3)OCO4)on2)cc1)C(=O)O [Example C-44]
MMP-8
  IC50: 0.00359 µM
MMP-12
  IC50: 0.000649 µM

## CC(C)[C@H](NS(=O)(=O)c1ccc(-c2cc(-c3ccc4c(c3)OCO4)on2)cc1)C(=O)O [Example C-45]
MMP-8
  IC50: 0.00366 µM
MMP-12
  IC50: 0.000641 µM

## CC(C)[C@@H](NS(=O)(=O)c1ccc(-c2cc(-c3ccc4c(c3)CCO4)on2)cc1)C(=O)O [Example C-47]
MMP-8
  IC50: 0.00107 µM
MMP-12
  IC50: 0.000264 µM

## CC(C)[C@H](NS(=O)(=O)c1ccc(-c2cc(-c3ccc4c(c3)CCO4)on2)cc1)C(=O)O [Example C-48]
MMP-8
  IC50: 0.000892 µM
MMP-12
  IC50: 0.0002 µM

## COc1ccc(-c2cc(-c3ccc(S(=O)(=O)N[C@@H](C(=O)O)C(C)C)cc3)no2)cc1F [Example C-51]
MMP-8
  IC50: 0.00263 µM
MMP-12
  IC50: 0.000266 µM
MMP-13
  IC50: 0.000836 µM

## CC(C)C[C@@H](NS(=O)(=O)c1ccc(-c2cc(-c3ccc(C(C)C)cc3)on2)cc1)C(=O)O [Example C-59]
MMP-13
  IC50: 0.000889 µM

## CC(C)C[C@H](NS(=O)(=O)c1ccc(-c2cc(-c3ccc(C(C)C)cc3)on2)cc1)C(=O)O [Example C-60]
MMP-12
  IC50: 0.000335 µM
MMP-13
  IC50: 0.000919 µM

## Cc1ccc(-c2cc(-c3ccc(S(=O)(=O)N[C@@H](CC(C)C)C(=O)O)cc3)no2)s1 [Example C-75]
MMP-8
  IC50: 0.00198 µM
MMP-12
  IC50: 0.000677 µM

## CC(C)C[C@H](NS(=O)(=O)c1ccc(-c2cc(-c3ccc(Cl)s3)on2)cc1)C(=O)O [Example C-79]
MMP-8
  IC50: 0.00286 µM
MMP-12
  IC50: 0.0008 µM

## CC(C)C[C@H](NS(=O)(=O)c1ccc(-c2cc(-c3ccc4c(c3)OCO4)on2)cc1)C(=O)O [Example C-86]
MMP-8
  IC50: 0.00478 µM
MMP-12
  IC50: 0.000545 µM

## CC(C)C[C@H](NS(=O)(=O)c1ccc(-c2cc(-c3ccc(Cl)c(Cl)c3)on2)cc1)C(=O)O [Example C-88]
MMP-8
  IC50: 0.00437 µM
MMP-12
  IC50: 0.000184 µM

## CC(C)C[C@H](NS(=O)(=O)c1ccc(-c2cc(-c3ccc4c(c3)CCO4)on2)cc1)C(=O)O [Example C-91]
MMP-8
  IC50: 0.00108 µM
MMP-12
  IC50: 0.000184 µM

## CCc1ccc(-c2cc(-c3ccc(S(=O)(=O)N[C@H](C(=O)O)C(C)CC)cc3)no2)cc1 (stereo partly shown) [Example C-95]
MMP-12
  IC50: 0.000172 µM
MMP-13
  IC50: 0.000702 µM

## CCC(C)[C@H](NS(=O)(=O)c1ccc(-c2cc(-c3ccc(OC)cc3)on2)cc1)C(=O)O (stereo partly shown) [Example C-96]
MMP-8
  IC50: 0.00229 µM
MMP-12
  IC50: 0.000228 µM

## CCC(C)[C@H](NS(=O)(=O)c1ccc(-c2cc(-c3ccc(SC)cc3)on2)cc1)C(=O)O (stereo partly shown) [Example C-97]
MMP-8
  IC50: 0.00421 µM
MMP-12
  IC50: 0.000239 µM
MMP-13
  IC50: 0.000578 µM

## CCC(C)[C@H](NS(=O)(=O)c1ccc(-c2cc(-c3ccc(C)s3)on2)cc1)C(=O)O (stereo partly shown) [Example C-98]
MMP-8
  IC50: 0.00103 µM
MMP-12
  IC50: 0.000629 µM

## CCc1ccc(-c2cc(-c3ccc(S(=O)(=O)N[C@H](C(=O)O)C(C)CC)cc3)no2)s1 (stereo partly shown) [Example C-99]
MMP-12
  IC50: 0.000649 µM
MMP-13
  IC50: 0.000971 µM

## CCC(C)[C@H](NS(=O)(=O)c1ccc(-c2cc(-c3ccc(OC(F)(F)F)cc3)on2)cc1)C(=O)O (stereo partly shown) [Example C-102]
MMP-12
  IC50: 0.00014 µM
MMP-13
  IC50: 0.000837 µM

## CCC(C)[C@H](NS(=O)(=O)c1ccc(-c2cc(-c3ccc(Cl)c(Cl)c3)on2)cc1)C(=O)O (stereo partly shown) [Example C-104]
MMP-8
  IC50: 0.00489 µM
MMP-12
  IC50: 0.000281 µM

## CCc1ccc(-c2cc(-c3ccc(S(=O)(=O)N[C@H](CC(=O)O)C(=O)O)cc3)no2)cc1 [Example C-113]
MMP-13
  IC50: 0.000733 µM

## CCCc1ccc(-c2cc(-c3ccc(S(=O)(=O)N[C@H](CC(=O)O)C(=O)O)cc3)no2)cc1 [Example C-114]
MMP-12
  IC50: 0.000578 µM
MMP-13
  IC50: 0.000223 µM

## O=C(O)C[C@@H](NS(=O)(=O)c1ccc(-c2cc(-c3ccc(C(F)(F)F)cc3)on2)cc1)C(=O)O [Example C-115]
MMP-13
  IC50: 0.000643 µM

## Cc1ccc(-c2cc(-c3ccc(S(=O)(=O)N[C@H](CC(=O)O)C(=O)O)cc3)no2)s1 [Example C-116]
MMP-8
  IC50: 0.0023 µM

— patent US7825146B2, “Sulfonamide derivative having isoxazole ring” (Shionogi & Co., Ltd., priority 2003, dated 2010)
